# Measurements taken from article PMC5783350, “Development of an activity-based probe for acyl-protein thioesterases” (PLoS ONE, 2018).
# “And” between values parts separate entries of the source, which are not always exact repeats. Identical values can stand only once.
# Legend:
# HsAPT2 [1] = target: T1, HsAPT2 (Homo sapiens, UniProt O95372); assay: 4-NPO esterase activity assay, recombinant HsAPT2; type: biochemical; parameters: made in house; host or cells: E. coli BL21(DE3)pLysS
# Text: (§1) We recently performed a phenotypic screen to identify small-molecule modulators of host cell invasion by the apicomplexan parasite T. gondii. The small-molecules in this directed screen were expected to covalently modify protein targets in an activity-dependent manner. Unexpectedly, this screen not only identified inhibitors of parasite invasion, but also compounds that enhanced host cell invasion. Enhancer compounds were all structurally similar substituted chloroisocoumarins. Using an alkynylated version of the lead enhancer compound (JCP174), we identified the phenotypically relevant target of the enhancer phenotype as the previously uncharacterized thioesterase TgPPT1 [12]. TgPPT1 is the orthologue of the human depalmitoylase HsAPT1, sharing 33% identity by BLAST analysis. […] Therefore, we screened a focused library of substituted chloroisocoumarins to identify compounds that inhibited HsAPT1 and HsAPT2 activity. […] To measure the enzymatic activity of recombinant HsAPT1 and HsAPT2, we used the previously reported substrate, 4-nitrophenyl octanoate (4-NPO), in which enzymatic cleavage of the ester linkage can be measured by UV/Vis spectroscopy upon release of 4-nitrophenolate (Fig 1A). Using this activity readout, we performed our screen with recombinant HsAPT1 and HsAPT2 using a focused library of 100 substituted chloroisocoumarins (Fig 1B). Compounds that produced >50% inhibition of either HsAPT1 or HsAPT2 activity relative to the DMSO control at 10 μM were then re-screened across a range of concentrations to determine in vitro IC50 values (Fig 1C and 1D). Compounds with IC50 values <10 μM for both HsAPT1 and HsAPT2 were scored as hits. According to these criteria, our screen achieved a hit rate of 7% (Table 1). […] We next tested the potency of JCP174 for both enzymes with increasing preincubation times from 30 minutes to 6 hours. The potency of JCP174 increased with longer pre-incubation times for both targets, indicating an irreversible covalent mechanism (S1 Table). […] (S1 Table).
# (§2) The 4-nitropenhyl octanoate (4-NPO) activity assay was modified from Dekker et al.. Briefly, 50 μL 20 mM HEPES, 150 mM NaCl, 0.01% v/v Triton-X 100, pH 7.4 buffer with the indicated concentrations of inhibitor or buffer control was added to 96-well plates. To each well, 30 μL of recombinantly expressed enzyme diluted to 1 μM in 20 mM HEPES, 150 mM NaCl, 0.01% v/v Triton-X 100, pH 7.4 buffer was added. The inhibitor and enzyme reaction was incubated at 37°C for 30 minutes before 20 μL of 4-NPO (3.0 mM) was added to the reaction in 20 mM HEPES, 150 mM NaCl, 0.25% v/v Triton-X 100, pH 7.4 buffer. The reaction progress was measured using a Cytation 3 plate reader at 401 nm at 1-minute intervals for 40 minutes.
# HsAPT1 [2] = target: T2, HsAPT1 (Homo sapiens, UniProt O75608); assay: 4-NPO esterase activity assay, recombinant HsAPT1; type: biochemical; parameters: made in house; host or cells: E. coli BL21(DE3)pLysS
# Text: as §1, §2
# TgPPT1 [3] = assay: In-gel labeling of recombinant TgPPT1 with JCP174-BT; type: binding, Toxoplasma gondii; settings: 1 μM probe
# TgPPT1 [4] = type: cell-based, Toxoplasma gondii
# [5] = system: HsAPT1 and HsAPT2 in intact U-2 OS cells; assay: Intact mammalian cell labeling, in-gel fluorescence; type: cell-based, human
# HsAPT1 [6] = target: T2, HsAPT1; assay: FP-rhodamine ABP competition labeling, U-2 OS (HsAPT1 band); type: cell-based; settings: intact U-2 OS cells pretreated 1 hour, washed, lysates labeled with FP-rho
# HsAPT2 [7] = target: T1, HsAPT2; assay: FP-rhodamine ABP competition labeling, U-2 OS (HsAPT2 band); type: cell-based; settings: intact U-2 OS cells pretreated 1 hour, washed, lysates labeled with FP-rho
# [8] = rHsAPT2, 4-NPO substrate, 30 minutes preincubation at 37°C
# [9] = rHsAPT1, 4-NPO substrate, 30 minutes preincubation at 37°C
# T2 sequence (O75608 whole entry): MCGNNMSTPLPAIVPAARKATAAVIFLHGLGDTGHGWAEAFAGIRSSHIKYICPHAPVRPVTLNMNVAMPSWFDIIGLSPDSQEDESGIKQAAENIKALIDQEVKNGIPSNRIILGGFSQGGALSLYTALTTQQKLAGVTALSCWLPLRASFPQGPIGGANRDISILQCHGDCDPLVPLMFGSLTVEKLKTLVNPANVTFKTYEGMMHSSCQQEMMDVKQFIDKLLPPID
# T1 sequence (O95372 whole entry): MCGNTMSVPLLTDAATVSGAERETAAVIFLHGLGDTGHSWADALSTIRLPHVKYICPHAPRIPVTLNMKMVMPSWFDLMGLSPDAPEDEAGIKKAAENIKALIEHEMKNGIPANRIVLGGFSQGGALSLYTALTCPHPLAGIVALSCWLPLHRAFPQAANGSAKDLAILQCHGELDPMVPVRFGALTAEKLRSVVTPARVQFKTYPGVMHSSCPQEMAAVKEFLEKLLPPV
IC50 (HsAPT2 [1]; [8]),IC50 (HsAPT1 [2]; [9]),Structure (SMILES),further results
2900 nM,1800 nM,CCOc1oc(=O)c2cc(NC(=S)Nc3ccccc3)ccc2c1Cl [JCP154],
498 nM and 500 nM,925 nM and 930 nM,"C#CCCOc1oc(=O)c2cc(N)ccc2c1Cl [JCP174-alk, 3-(3-Butynoxy)-4-chloro-7-amino-isocoumarin]",
5200 nM,1500 nM,O=C(O)c1cccc(NC(=S)Nc2ccc3c(Cl)c(OCCBr)oc(=O)c3c2)c1 [JCP342],
9100 nM,1400 nM,O=c1oc(OCCBr)c(Cl)c2ccc(NC(=S)Nc3ccccc3)cc12 [JCP343],
8500 nM,7100 nM,O=C(O)c1ccc(NC(=S)Nc2ccc3c(Cl)c(OCCBr)oc(=O)c3c2)cc1 [JCP345],
950 nM,1200 nM,CC(CBr)Oc1oc(=O)c2cc(N)ccc2c1Cl (stereo not shown) [JCP362],
320 nM,310 nM,"CCCCCCCCCC[C@@H]1C(=O)O[C@H]1CCc1ccc(OC)c(OC)c1 [Palmostatin B, palmostatin B, reference compound]",Competition for FP-rho labeling of HsAPT1 (HsAPT1 [6]): competed for the same two species; IC50 (HsAPT2 [1]; preincubation time 2 hr): 700 nM; IC50 (HsAPT2 [1]; preincubation time 6 hr): 1600 nM; Competition for FP-rho labeling of HsAPT2 (HsAPT2 [7]): competed for the same two species; IC50 (HsAPT1 [2]; preincubation time 2 hr): 2500 nM; IC50 (HsAPT1 [2]; preincubation time 6 hr): 6800 nM

Structure (SMILES),IC50 (HsAPT2 [1]; [8]),IC50 (HsAPT1 [2]; [9]),further results
"O=c1oc(Cl)c(Cl)c2ccccc12 [DCI, dichloroisocoumarin, reference compound]",2700 nM,1700 nM,
COc1ccc(-c2ccc3n2[B-](F)(F)[N+]2=C(C)C(CCC(=O)NCCCn4cc(CCOc5oc(=O)c6cc(N)ccc6c5Cl)nn4)=C(C)C2=C3)cc1 [JCP174-BODIPY TMR],1800 nM,3000 nM,Covalent labeling of active site mutant TgPPT1 S128A (TgPPT1 [3]; recombinant TgPPT1 S128A): did not label the active site mutant; Covalent labeling of wild-type TgPPT1 (TgPPT1 [3]; recombinant TgPPT1 WT): covalently modified; Labeling of TgPPT1 in intact T. gondii tachyzoites (TgPPT1 [4]): strong labeling of TgPPT1 in intact cells; Labeling of HsAPT1 and HsAPT2 in intact U-2 OS cells [5]: labeled APT1 and APT2 in intact cells
